Usually CC50 stands for the concentration at which the toxic effect on the cells reaches its halfway point.

Each structure is given as a SMILES string. Read-outs that look alike come from different tables or passages of the source.

From patent US20240018123A1, “COMPOUND FOR INHIBITING OR DISINTEGRATING ANDROGEN RECEPTOR, AND PHARMACEUTICAL USE THEREOF” (KOREA RESEARCH INSTITUTE OF CHEMICAL TECHNOLOGY, priority 2020, published 2024) come the findings set out here.

One data set has as its system 22RV1 cells. Briefly: Cytotoxicity assessment (Cell-titer-glo cell viability), 22RV1. The class given is cell-based.
For the next data set, the target named is T1, Androgen receptor (AR) (Homo sapiens, UniProt P10275, T878A).
T1 construct: 5.5×10^5 LNCap cells were injected into each well of a 6-well plate; endogenous in cells; host or cells: LNCaP
T1 sequence (P10275 1-920 T878A): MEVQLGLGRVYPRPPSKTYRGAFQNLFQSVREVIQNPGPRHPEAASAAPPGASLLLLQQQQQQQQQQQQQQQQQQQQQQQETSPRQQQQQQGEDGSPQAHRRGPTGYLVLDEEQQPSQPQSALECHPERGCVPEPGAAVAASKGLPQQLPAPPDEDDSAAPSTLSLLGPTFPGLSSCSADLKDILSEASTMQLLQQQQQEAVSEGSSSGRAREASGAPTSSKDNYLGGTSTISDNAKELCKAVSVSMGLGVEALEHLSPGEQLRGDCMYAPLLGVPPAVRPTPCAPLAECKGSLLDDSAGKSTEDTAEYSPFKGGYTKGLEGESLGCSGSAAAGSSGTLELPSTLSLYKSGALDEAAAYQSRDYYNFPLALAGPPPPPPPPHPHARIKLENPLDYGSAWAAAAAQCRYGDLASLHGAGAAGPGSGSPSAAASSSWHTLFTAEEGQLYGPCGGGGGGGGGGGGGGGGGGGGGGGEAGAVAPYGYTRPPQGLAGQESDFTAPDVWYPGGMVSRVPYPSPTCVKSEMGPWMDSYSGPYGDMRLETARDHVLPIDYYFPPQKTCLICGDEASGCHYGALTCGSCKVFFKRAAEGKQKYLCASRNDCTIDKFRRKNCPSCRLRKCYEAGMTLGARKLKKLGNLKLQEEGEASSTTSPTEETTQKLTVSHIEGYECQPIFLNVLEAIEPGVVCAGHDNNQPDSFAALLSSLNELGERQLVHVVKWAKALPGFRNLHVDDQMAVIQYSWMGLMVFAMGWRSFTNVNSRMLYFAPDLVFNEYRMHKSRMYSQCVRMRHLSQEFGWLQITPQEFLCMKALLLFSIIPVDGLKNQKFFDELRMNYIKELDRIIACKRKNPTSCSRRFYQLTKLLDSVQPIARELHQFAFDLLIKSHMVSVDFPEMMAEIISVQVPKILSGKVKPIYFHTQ
In words: Assessment of AR proteolytic activity (Western blotting of LNCap cell lysates). The class given is cell-based. Particulars: 24 hours of treatment, Western blotting quantified with Image J. The gist of the method: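 AR degradation read by Western blot densitometry on RIPA lysates (pH 7.5, protease inhibitor cocktail). Lysates came from LNCap cells, 5.5×10^5 per well, exposed to compound for 24 hours.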

Data set [1] relates to LNCaP cells.
Method: (§1) In order to evaluate the androgen receptor (AR) cytotoxicity of the compounds according to the present invention, the following experiment was conducted. Specifically, 1.5×10^3 (LNCaP) or 4×10^3 (VCaP, 22RV1), respectively, of LNCaP, VCaP, and 22RV1 cells were injected into each well of a 96-well plate. The next day, each well was treated with the compound at a final concentration of 3 nM, 10 nM, 30 nM, 100 nM, 300 nM, 1 μM, 3 μM, and 10 μM. […] After 6 days of treatment, Cell-titer-glo (promega) was treated and reacted for 10 minutes, and cell viability was measured with a multimode plate reader (PerkinElmer, Inc.), and the change was quantified compared to when DMSO was treated.
Data set [2] concerns LNCaP cells. In words: Cytotoxicity assessment (Cell-titer-glo cell viability), LNCaP. To be noted: read-out: LNCAP (CC50); LNCaP cells, 6 days of treatment, Cell-titer-glo, vs DMSO.
Method: as §1

Method for 22RV1 cells: as §1

With `CC1(C)[C@H](NC(=O)c2ccc(OCCOCCOCCOCCOCCOCCCNc3cccc4nnn(C5CCC(=O)NC5=O)c(=O)c34)cc2)C(C)(C)[C@H]1Oc1ccc(C#N)c(Cl)c1` (single isomer, unassigned) [Example 3, N-((1r,3r)-3-(3-chloro-4-cyanophenoxy)-2,2,4,4-tetramethylcyclobutyl)-4-((18-((3-(2,6-dioxopiperidin-3-yl)-4-oxo-3,4-dihydrobenzo[d][1,2,3]triazin-5-yl)amino)-3,6,9,12,15-pentaoxaoctadecyl)oxy)benzamide], the CC50 is 430 nM in the data set with 22RV1 cells and 2980 nM with LNCaP cells [1]. Also, at Androgen receptor (AR), the “Degradation (1 μM treated in LNCaP, % AR remaining)” value was determined as 47%.

`CC1(C)C(NC(=O)c2ccc(OCCOCCOCCOCCOCCOCCOCCCCNc3cccc4nnn(C5CCC(=O)NC5=O)c(=O)c34)cc2)C(C)(C)C1Oc1ccc(C#N)c(Cl)c1` (stereo not drawn) [Example 6, N-((1r,3r)-3-(3-chloro-4-cyanophenoxy)-2,2,4,4-tetramethylcyclobutyl)-4-((22-((3-(2,6-dioxopiperidin-3-yl)-4-oxo-3,4-dihydrobenzo[d][1,2,3]triazin-5-yl)amino)-3,6,9,12,15,18-hexaoxadocosyl)oxy)benzamide]: the CC50 in the data set on 22RV1 cells (22RV1 cells, 6 days of treatment, Cell-titer-glo, vs DMSO, read-out: 22RV1 (CC50)) was 7100 nM; with LNCaP cells [2], 5930 nM. Also, at Androgen receptor (AR), the “Degradation (1 μM treated in LNCaP, % AR remaining)” value amounted to 66%.

`CC1(C)[C@H](NC(=O)c2ccc(C#CC3CCN(CC4CCN(c5ccc6nnn(C7CCC(=O)NC7=O)c(=O)c6c5)CC4)CC3)cc2)C(C)(C)[C@H]1Oc1ccc(C#N)c(Cl)c1` (stereo partly drawn) [Example 99, N-((1r,3r)-3-(3-chloro-4-cyanophenoxy)-2,2,4,4-tetramethylcyclobutyl)-4-((1-((1-(3-(2,6-dioxopiperidin-3-yl)-4-oxo-3,4-dihydrobenzo[d][1,2,3]triazin-6-yl)piperidin-4-yl)methyl)piperidin-4-yl)ethynyl)benzamide]: the CC50 in the data set on VCaP cells was 2 nM; in the data set with LNCaP cells [1], 31.5 nM. For the same compound, at Androgen receptor (AR), the “Degradation (1 μM treated in LNCaP, % AR remaining)” value is on record as 20%.

In the case of `CC1(C)[C@H](NC(=O)c2ccc(N3CCN(CC4(F)CCN(C(=O)C5CN(c6ccc7nnn(C8CCC(=O)NC8=O)c(=O)c7c6)C5)CC4)CC3)cc2)C(C)(C)[C@H]1Oc1ccc(C#N)c(Cl)c1` (stereo partly drawn) [Example 63, N-((1r,3r)-3-(3-chloro-4-cyanophenoxy)-2,2,4,4-tetramethylcyclobutyl)-4-(4-((1-(1-(3-(2,6-dioxopiperidin-3-yl)-4-oxo-3,4-dihydrobenzo[d][1,2,3]triazin-6-yl)azetidine-3-carbonyl)-4-fluoropiperidin-4-yl)methyl)piperazin-1-yl)benzamide], the CC50 with VCaP cells came to 14.8 nM; in the data set on LNCaP cells [1], 53.2 nM. Besides, the “Degradation (1 μM treated in LNCaP, % AR remaining)” value on Androgen receptor (AR) is given as 6%.

Consider `CC1(C)[C@H](NC(=O)c2ccc(N3CCN(CCC4CCN(C(=O)C5CN(c6ccc7nnn(C8CCC(=O)NC8=O)c(=O)c7c6)C5)CC4)CC3)cc2)C(C)(C)[C@H]1Oc1ccc(C#N)c(Cl)c1` (stereo partly drawn) [Example 27, N-((1r,3r)-3-(3-chloro-4-cyanophenoxy)-2,2,4,4-tetramethylcyclobutyl)-4-(4-(2-(1-(1-(3-(2,6-dioxopiperidin-3-yl)-4-oxo-3,4-dihydrobenzo[d][1,2,3]triazin-6-yl)azetidine-3-carbonyl)piperidin-4-yl)ethyl)piperazin-1-yl)benzamide], for which the values for the half-maximal cytotoxic concentration (CC50) in the data set with VCaP cells and with LNCaP cells [1] were 37.1 nM and 552 nM, respectively. For the same compound, the “Degradation (1 μM treated in LNCaP, % AR remaining)” value on Androgen receptor (AR) is 14%.

`CC1(C)[C@H](NC(=O)c2ccc(C#CC3CCN(C(=O)CNc4ccc5nnn(C6CCC(=O)NC6=O)c(=O)c5c4)CC3)cc2)C(C)(C)[C@H]1Oc1ccc(C#N)c(Cl)c1` (stereo partly drawn) [Example 143, N-((1r,3r)-3-(3-chloro-4-cyanophenoxy)-2,2,4,4-tetramethylcyclobutyl)-4-((1-((3-(2,6-dioxopiperidin-3-yl)-4-oxo-3,4-dihydrobenzo[d][1,2,3]triazin-6-yl)glycyl)piperidin-4-yl)ethynyl)benzamide]: the CC50 with VCaP cells came to 6.9 nM; in the data set with LNCaP cells [1] it was 17.6 nM. Besides, the “Degradation (1 μM treated in LNCaP, % AR remaining)” value on Androgen receptor (AR) came to 18%.

`CC1(C)[C@H](NC(=O)c2ccc(N3CCN(CCCC4CCN(C(=O)C5CN(c6ccc7nnn(C8CCC(=O)NC8=O)c(=O)c7c6)C5)CC4)CC3)cc2)C(C)(C)[C@H]1Oc1ccc(C#N)c(Cl)c1` (stereo partly drawn) [Example 47, N-((1r,3r)-3-(3-chloro-4-cyanophenoxy)-2,2,4,4-tetramethylcyclobutyl)-4-(4-(3-(1-(1-(3-(2,6-dioxopiperidin-3-yl)-4-oxo-3,4-dihydrobenzo[d][1,2,3]triazin-6-yl)azetidine-3-carbonyl)piperidin-4-yl)propyl)piperazin-1-yl)benzamide]: the CC50 in the data set with VCaP cells was 23.7 nM; in the data set on LNCaP cells [1] it was 168 nM. For the same compound, the “Degradation (1 μM treated in LNCaP, % AR remaining)” value on Androgen receptor (AR) came to 43.6%.

Turning to `CC1(C)[C@H](NC(=O)c2ccc(N3CCN(CCC4CCN(C(=O)COc5ccc6nnn(C7CCC(=O)NC7=O)c(=O)c6c5)CC4)CC3)cc2)C(C)(C)[C@H]1Oc1ccc(C#N)c(Cl)c1` (stereo partly drawn) [Example 24, N-((1r,3r)-3-(3-chloro-4-cyanophenoxy)-2,2,4,4-tetramethylcyclobutyl)-4-(4-(2-(1-(2-((3-(2,6-dioxopiperidin-3-yl)-4-oxo-3,4-dihydrobenzo[d][1,2,3]triazin-6-yl)oxy)acetyl)piperidin-4-yl)ethyl)piperazin-1-yl)benzamide], the results for the CC50 in the data set on VCaP cells and with LNCaP cells [1] were 107 nM and 1480 nM, respectively. The “Degradation (1 μM treated in LNCaP, % AR remaining)” value at Androgen receptor (AR) was 13%.

Turning to `CC1(C)[C@H](NC(=O)c2ccc(C#CC3CCN(C(=O)COc4ccc5nnn(C6CCC(=O)NC6=O)c(=O)c5c4)CC3)cc2)C(C)(C)[C@H]1Oc1ccc(C#N)c(Cl)c1` (stereo partly drawn) [Example 144, N-((1r,3r)-3-(3-chloro-4-cyanophenoxy)-2,2,4,4-tetramethylcyclobutyl)-4-((1-(2-((3-(2,6-dioxopiperidin-3-yl)-4-oxo-3,4-dihydrobenzo[d][1,2,3]triazin-6-yl)oxy)acetyl)piperidin-4-yl)ethynyl)benzamide], the CC50 in the data set with VCaP cells came to 21 nM; with LNCaP cells [1], 144 nM. Also, at Androgen receptor (AR), the “Degradation (1 μM treated in LNCaP, % AR remaining)” value amounted to 14.7%.

With `CC1(C)[C@H](NC(=O)c2ccc(-c3cnn(C4CCN(CC5CCN(C(=O)C6CN(c7ccc8nnn(C9CCC(=O)NC9=O)c(=O)c8c7)C6)CC5)CC4)c3)cc2)C(C)(C)[C@H]1Oc1ccc(C#N)c(Cl)c1` (stereo partly drawn) [Example 83, N-((1r,3r)-3-(3-chloro-4-cyanophenoxy)-2,2,4,4-tetramethylcyclobutyl)-4-(1-(1-((1-(1-(3-(2,6-dioxopiperidin-3-yl)-4-oxo-3,4-dihydrobenzo[d][1,2,3]triazin-6-yl)azetidine-3-carbonyl)piperidin-4-yl)methyl)piperidin-4-yl)-1H-pyrazol-4-yl)benzamide], the CC50 was determined as 6 nM with VCaP cells and 13.7 nM in the data set on LNCaP cells [1]. The “Degradation (1 μM treated in LNCaP, % AR remaining)” value at Androgen receptor (AR) amounted to 43%.

As for `CC1(C)[C@H](NC(=O)c2ccc(-n3cc(C4CCN(C(=O)C5CN(c6ccc7nnn(C8CCC(=O)NC8=O)c(=O)c7c6)C5)CC4)nn3)cc2)C(C)(C)[C@H]1Oc1ccc(C#N)c(Cl)c1` (stereo partly drawn) [Example 101, N-((1r,3r)-3-(3-chloro-4-cyanophenoxy)-2,2,4,4-tetramethylcyclobutyl)-4-(4-(1-(1-(3-(2,6-dioxopiperidin-3-yl)-4-oxo-3,4-dihydrobenzo[d][1,2,3]triazin-6-yl)azetidine-3-carbonyl)piperidin-4-yl)-1H-1,2,3-triazol-1-yl)benzamide], the CC50 is 15.5 nM in the data set with VCaP cells and 7.06 nM with LNCaP cells [1]. The “Degradation (1 μM treated in LNCaP, % AR remaining)” value on Androgen receptor (AR) was found to be 40%.

`CC1(C)[C@H](NC(=O)c2ccc(N3CCN(CCC4CCN(C(=O)CNc5ccc6nnn(C7CCC(=O)NC7=O)c(=O)c6c5)CC4)CC3)cc2)C(C)(C)[C@H]1Oc1ccc(C#N)c(Cl)c1` (stereo partly drawn) [Example 25, N-((1r,3r)-3-(3-chloro-4-cyanophenoxy)-2,2,4,4-tetramethylcyclobutyl)-4-(4-(2-(1-((3-(2,6-dioxopiperidin-3-yl)-4-oxo-3,4-dihydrobenzo[d][1,2,3]triazin-6-yl)glycyl)piperidin-4-yl)ethyl)piperazin-1-yl)benzamide]: the CC50 in the data set with VCaP cells came out at 45.7 nM; in the data set on LNCaP cells [1] it was 2130 nM. Moreover, on Androgen receptor (AR), the “Degradation (1 μM treated in LNCaP, % AR remaining)” value amounted to 50%.
